Measured values as given in US4701465A, “N-acylpyrrolidine derivative and synthesis and use thereof” (Suntory Limited, priority 1985, dated 1987).
Each block holds one molecule with its values, some of them ahead of it.

Columns and labels:
prolyl endopeptidase = prolyl endopeptidase (Elizabethkingia meningoseptica, UniProt P27028); assay: Measurement of anti-prolyl endopeptidase activity; format: biochemical; conditions: substrate Z-glycyl-proline-β-naphthylamide, 0.1M phosphate buffer pH 7.06, absorbance at 410 nm
Experimental: The method of Yoshimoto and Tsuru (T. Yoshimoto and D. Tsuru, Agr. Biol. Chem. 42, 2417, 1978) was used to measure the anti-prolyl endopeptidase activities of compounds of the present invention. A mixture of 0.0025M Z-glycyl-proline-β-naphthylamide (0.25 ml), 0.1M phosphate buffer (pH, 7.06; 0.99 ml) and a solution of a particular anti-prolyl endopeptidase compound (0.01 ml) was incubated in a test tube at 37° C. for 3 minutes. Thereafter, 0.1 ml of a solution of prolyl endopeptidase (0.2 U/ml) was added and the mixture was heated at 35° C. for 10 minutes. After the reaction, 2.0 ml of Triton X-100 in 1M acetate buffer (pH, 4.0) was added to the reaction mixture until the final concentration of the surfactant was 10%. The mixture was left at room temperature for 15 minutes and the absorbance (a) at 410 nm was measured.
A sample for a blind test was prepared by using the buffer instead of the anti-prolyl endopeptidase compound and its absorbance (b) was also measured. The percent inhibition of prolyl endopeptidase was calculated by the formula: ((b-a)/b)×100, and the amount of a specific compound to achieve 50% inhibition IC50) was determined.

[1] = tested on: experimental amnesia caused in rats by scopolamine; assay: Preventive effect against experimental amnesia caused in rats by scopolamine (passive avoidance learning, intraperitoneal administration); format: in vivo, Wister male rats; conditions: 1 mg/kg i.p.; for No. of amnesic rats/No. of rats tested / percentage amnesia / Avoidance time 24 hrs. later / Avoidance time 48 hrs. later: scopolamine 3 mg/kg i.p. after learning; for preventive effect against scopolamine amnesia (in words): rats
Experimental: Several of the anti-prolyl endopeptidase compounds of the present invention were checked for their ability to prevent the inhibition of long-term memory fixation by scopolamine. Solutions of physiological saline that contained selected compounds of the present inventions in an amount of 1 mg/kg were administered intraperitoneally to Wister male rats (100-120 g). One hour after the administration, electric shocks were applied to the rats so that they would acquire passive avoidance learning. Immediately thereafter, scopolamine was administered intraperitoneally to each rat in an amount of 3 mg per kg of body weight.
The result of the test was assessed both 24 hours and 48 hours after the administration of scopolamine. The number of amnesic rats and of sound rats was counted for both the control group (rats which were not given the test compounds but to which scopolamine and physiological saline alone were administered intraperitoneally) and the treated group (rats to which both the test compound and scopolamine were administered).

prolyl endopeptidase, sequence (P27028 21-705): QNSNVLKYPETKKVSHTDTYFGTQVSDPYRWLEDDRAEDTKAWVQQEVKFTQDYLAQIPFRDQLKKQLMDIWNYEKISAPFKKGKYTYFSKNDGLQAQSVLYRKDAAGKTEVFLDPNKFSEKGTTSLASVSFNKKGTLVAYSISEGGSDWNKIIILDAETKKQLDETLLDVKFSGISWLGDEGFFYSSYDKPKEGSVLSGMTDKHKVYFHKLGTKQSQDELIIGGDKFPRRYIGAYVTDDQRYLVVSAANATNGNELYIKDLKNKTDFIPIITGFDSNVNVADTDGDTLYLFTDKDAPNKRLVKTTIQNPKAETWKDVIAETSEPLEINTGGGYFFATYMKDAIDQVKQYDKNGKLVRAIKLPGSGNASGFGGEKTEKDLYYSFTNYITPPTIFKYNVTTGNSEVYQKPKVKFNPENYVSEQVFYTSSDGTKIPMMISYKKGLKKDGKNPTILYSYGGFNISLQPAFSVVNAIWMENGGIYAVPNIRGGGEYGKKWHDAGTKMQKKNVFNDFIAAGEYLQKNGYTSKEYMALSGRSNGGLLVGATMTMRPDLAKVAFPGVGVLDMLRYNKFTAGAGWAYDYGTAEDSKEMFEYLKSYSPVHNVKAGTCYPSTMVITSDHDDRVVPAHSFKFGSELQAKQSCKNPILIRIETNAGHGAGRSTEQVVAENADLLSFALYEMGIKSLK

SMILES: COC(=O)C1CCCN1C(=O)Cc1ccc(OC)cc1 (centres unmarked) [Compound No. 1]
- IC50 (amount of compound to achieve 50% inhibition of prolyl endopeptidase) (prolyl endopeptidase): 80 μg/test tube

SMILES: COC(=O)C1CCCN1C(=O)CCc1ccc(OC)cc1 (centres unmarked) [Compound No. 2]
- IC50 (amount of compound to achieve 50% inhibition of prolyl endopeptidase) (prolyl endopeptidase): 51 μg/test tube

SMILES: COC(=O)[C@@H]1CCCN1C(=O)CCOc1ccccc1 [Compound No. 19, N-(3-phenoxy)propionyl-proline methyl ester]
- IC50 (amount of compound to achieve 50% inhibition of prolyl endopeptidase) (prolyl endopeptidase): 60 μg/test tube

SMILES: O=CC1CCCN1C(=O)CCOc1ccccc1 (centres unmarked) [Compound No. 21, N-(3-phenoxy)propionyl-prolinal]
- IC50 (amount of compound to achieve 50% inhibition of prolyl endopeptidase) (prolyl endopeptidase): 2.5 μg/test tube

SMILES: COc1ccc(CCC(=O)N2CCCC2C=O)cc1 (centres unmarked) [SUAM1050]
- No. of amnesic rats/No. of rats tested [1]: 5/10
- percentage amnesia [1]: 50%
- Avoidance time 24 hrs. later [1]: 198.2 s
- Avoidance time 48 hrs. later [1]: 203.5 s

SMILES: COc1ccc(CCCC(=O)N2CCCC2C=O)cc1 (centres unmarked) [SUAM1051]
- preventive effect against scopolamine amnesia (in words) [1]: particularly remarkable effects
- No. of amnesic rats/No. of rats tested [1]: 0/10
- percentage amnesia [1]: 0%
- Avoidance time 24 hrs. later [1]: 300.0 s
- Avoidance time 48 hrs. later [1]: 300.0 s

SMILES: O=CC1CCCN1C(=O)Cc1ccc(Cl)cc1 (centres unmarked) [SUAM1052]
- No. of amnesic rats/No. of rats tested [1]: 3/10
- percentage amnesia [1]: 30%
- Avoidance time 24 hrs. later [1]: 223.1 s
- Avoidance time 48 hrs. later [1]: 214.8 s

SMILES: COc1ccc(/C=C/C(=O)N2CCCC2C=O)cc1 (centres unmarked) [SUAM1054]
- No. of amnesic rats/No. of rats tested [1]: 5/10
- percentage amnesia [1]: 50%
- Avoidance time 24 hrs. later [1]: 204.5 s
- Avoidance time 48 hrs. later [1]: 199.7 s

SMILES: O=CC1CCCN1C(=O)CCC(=O)c1ccccc1 (centres unmarked) [SUAM1055]
- preventive effect against scopolamine amnesia (in words) [1]: particularly remarkable effects
- No. of amnesic rats/No. of rats tested [1]: 0/10
- percentage amnesia [1]: 0%
- Avoidance time 24 hrs. later [1]: 300.0 s
- Avoidance time 48 hrs. later [1]: 300.0 s

SMILES: O=CC1CCCN1C(=O)CC(c1ccccc1)c1ccccc1 (centres unmarked) [SUAM1065]
- preventive effect against scopolamine amnesia (in words) [1]: particularly remarkable effects
- No. of amnesic rats/No. of rats tested [1]: 1/10
- percentage amnesia [1]: 10%
- Avoidance time 24 hrs. later [1]: 284.6 s
- Avoidance time 48 hrs. later [1]: 267.2 s

SMILES: CCC(C(=O)N1CCCC1C=O)c1ccccc1 (centres unmarked) [SUAM1066]
- No. of amnesic rats/No. of rats tested [1]: 3/10
- percentage amnesia [1]: 30%
- Avoidance time 24 hrs. later [1]: 268.4 s
- Avoidance time 48 hrs. later [1]: 205.4 s

SMILES: O=CC1CCCN1C(=O)CCC(c1ccccc1)c1ccccc1 (centres unmarked) [SUAM1090]
- No. of amnesic rats/No. of rats tested [1]: 4/10
- percentage amnesia [1]: 40%
- Avoidance time 24 hrs. later [1]: 232.8 s
- Avoidance time 48 hrs. later [1]: 202.36 s

SMILES: COC(=O)C1CCCN1C(=O)CCCc1ccc(OC)cc1 (centres unmarked) [compound 3]
- IC50 (amount of compound to achieve 50% inhibition of prolyl endopeptidase) (prolyl endopeptidase): 180 μg/test tube

SMILES: COc1ccc(CC(=O)N2CCCC2C=O)cc1 (centres unmarked) [compound 7]
- IC50 (amount of compound to achieve 50% inhibition of prolyl endopeptidase) (prolyl endopeptidase): 3.0 μg/test tube

SMILES: COc1ccc(CCC(=O)N2CCCC2C=O)cc1 (centres unmarked) [compound 8]
- IC50 (amount of compound to achieve 50% inhibition of prolyl endopeptidase) (prolyl endopeptidase): 1.0 μg/test tube

SMILES: COc1ccc(CCCC(=O)N2CCCC2C=O)cc1 (centres unmarked) [compound 9]
- IC50 (amount of compound to achieve 50% inhibition of prolyl endopeptidase) (prolyl endopeptidase): 0.05 μg/test tube

SMILES: COC(=O)C1CCCN1C(=O)Cc1ccc(Cl)cc1 (centres unmarked) [compound 10]
- IC50 (amount of compound to achieve 50% inhibition of prolyl endopeptidase) (prolyl endopeptidase): 72 μg/test tube

SMILES: COC(=O)C1CCCN1C(=O)CCc1ccc(Cl)cc1 (centres unmarked) [compound 11]
- IC50 (amount of compound to achieve 50% inhibition of prolyl endopeptidase) (prolyl endopeptidase): 30 μg/test tube

SMILES: COC(=O)C1CCCN1C(=O)CCCc1ccc(Cl)cc1 (centres unmarked) [compound 12]
- IC50 (amount of compound to achieve 50% inhibition of prolyl endopeptidase) (prolyl endopeptidase): 50 μg/test tube

The remaining lines, values ahead:

- IC50 (amount of compound to achieve 50% inhibition of prolyl endopeptidase) (prolyl endopeptidase): 0.5 μg/test tube
SMILES: O=CC1CCCN1C(=O)Cc1ccc(Cl)cc1 (centres unmarked) [compound 16]

- IC50 (amount of compound to achieve 50% inhibition of prolyl endopeptidase) (prolyl endopeptidase): 1.0 μg/test tube
SMILES: O=CC1CCCN1C(=O)CCc1ccc(Cl)cc1 (centres unmarked) [compound 17]

- IC50 (amount of compound to achieve 50% inhibition of prolyl endopeptidase) (prolyl endopeptidase): 1.5 μg/test tube
SMILES: O=CC1CCCN1C(=O)CCCc1ccc(Cl)cc1 (centres unmarked) [compound 18]

- IC50 (amount of compound to achieve 50% inhibition of prolyl endopeptidase) (prolyl endopeptidase): 250 μg/test tube
SMILES: COC(=O)C1CCCN1C(=O)CC(c1ccccc1)c1ccccc1 (centres unmarked) [compound 22]

- IC50 (amount of compound to achieve 50% inhibition of prolyl endopeptidase) (prolyl endopeptidase): 0.1 μg/test tube
SMILES: O=CC1CCCN1C(=O)CC(c1ccccc1)c1ccccc1 (centres unmarked) [compound 24]

- IC50 (amount of compound to achieve 50% inhibition of prolyl endopeptidase) (prolyl endopeptidase): 510 μg/test tube
SMILES: CCC(C(=O)N1CCCC1C(=O)OC)c1ccccc1 (centres unmarked) [compound 25]

- IC50 (amount of compound to achieve 50% inhibition of prolyl endopeptidase) (prolyl endopeptidase): 0.2 μg/test tube
SMILES: CCC(C(=O)N1CCCC1C=O)c1ccccc1 (centres unmarked) [compound 27]

- IC50 (amount of compound to achieve 50% inhibition of prolyl endopeptidase) (prolyl endopeptidase): 200 μg/test tube
SMILES: COC(=O)C1CCCN1C(=O)CCC(=O)c1ccccc1 (centres unmarked) [compound 28]

- IC50 (amount of compound to achieve 50% inhibition of prolyl endopeptidase) (prolyl endopeptidase): 0.1 μg/test tube
SMILES: O=CC1CCCN1C(=O)CCC(=O)c1ccccc1 (centres unmarked) [compound 30]

- IC50 (amount of compound to achieve 50% inhibition of prolyl endopeptidase) (prolyl endopeptidase): > 200 μg/test tube
SMILES: COC(=O)C1CCCN1C(=O)C(CCc1ccccc1)C(C)C (centres unmarked) [compound 31]

- IC50 (amount of compound to achieve 50% inhibition of prolyl endopeptidase) (prolyl endopeptidase): > 5 μg/test tube
SMILES: CC(C)C(CCc1ccccc1)C(=O)N1CCCC1C=O (centres unmarked) [compound 33]

- IC50 (amount of compound to achieve 50% inhibition of prolyl endopeptidase) (prolyl endopeptidase): 80 μg/test tube
SMILES: COC(=O)C1CCCN1C(=O)C(C)CCc1ccccc1 (centres unmarked) [compound 34]

- IC50 (amount of compound to achieve 50% inhibition of prolyl endopeptidase) (prolyl endopeptidase): 1.0 μg/test tube
SMILES: CC(CCc1ccccc1)C(=O)N1CCCC1C=O (centres unmarked) [compound 36]

- IC50 (amount of compound to achieve 50% inhibition of prolyl endopeptidase) (prolyl endopeptidase): 80 μg/test tube
SMILES: COC(=O)C1CCCN1C(=O)/C=C/c1ccc(OC)cc1 (centres unmarked) [compound 37]

- IC50 (amount of compound to achieve 50% inhibition of prolyl endopeptidase) (prolyl endopeptidase): 0.2 μg/test tube
SMILES: COc1ccc(/C=C/C(=O)N2CCCC2C=O)cc1 (centres unmarked) [compound 39]

- IC50 (amount of compound to achieve 50% inhibition of prolyl endopeptidase) (prolyl endopeptidase): 0.35 μg/test tube
SMILES: O=CC1CCCN1C(=O)CCC(c1ccccc1)c1ccccc1 (centres unmarked) [compound 42]
